Measured values taken from PubChem BioAssay (NCI).
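Each compound was tested at five concentrations against cells in 96-well plates for 48 hours. TGI: concentration producing complete growth inhibition.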

How the values were obtained:
Experiment in all cases: NCI anticancer screen, dose series, 48 h
[1] = test system: 786-0 renal
[2] = test system: SK-MEL-28 melanoma
[3] = test system: TK-10 renal
[4] = test system: UACC-62 melanoma
[5] = test system: HCT-15 colon
[6] = test system: HCC-2998 colon
[7] = test system: SK-MEL-5 melanoma
[8] = test system: HL-60(TB) leukemia
[9] = test system: M14 melanoma
[10] = test system: U251 CNS
[11] = test system: DU-145 prostate
[12] = test system: HOP-92 NSCLC
[13] = test system: SNB-19 CNS
[14] = test system: NCI-H460 lung
[15] = test system: COLO 205 colon
[16] = test system: NCI-H522 lung
[17] = test system: UO-31 renal
[18] = test system: T-47D breast
[19] = test system: MDA-MB-231 breast
[20] = test system: KM12 colon
[21] = test system: OVCAR-3 ovarian
[22] = test system: HOP-62 NSCLC
[23] = test system: OVCAR-5 ovarian
[24] = test system: MDA-N
[25] = test system: HS 578T breast
[26] = test system: SNB-75 CNS
[27] = test system: A498 renal
[28] = test system: UACC-257 melanoma
[29] = test system: OVCAR-8 ovarian
[30] = test system: RXF 393 renal
[31] = test system: HCT-116 colon
[32] = test system: SF-268 CNS
[33] = test system: NCI/ADR-RES ovarian
[34] = test system: PC-3 prostate
[35] = test system: NCI-H226 lung
[36] = test system: SK-MEL-2 melanoma
[37] = test system: EKVX NSCLC
[38] = test system: SF-295 CNS
[39] = test system: A549 NSCLC
[40] = test system: MALME-3M melanoma
[41] = test system: MCF7 breast
[42] = test system: OVCAR-4 ovarian
[43] = test system: BT-549 breast
[44] = test system: CAKI-1 renal
[45] = test system: HT29 colon
[46] = test system: CCRF-CEM leukemia
[47] = test system: SR leukemia
[48] = test system: MDA-MB-435
[49] = test system: IGROV1 ovarian
[50] = test system: MOLT-4 leukemia
[51] = test system: RPMI-8226 leukemia
[52] = test system: SK-OV-3 ovarian
[53] = test system: SN12C renal
[54] = test system: K-562 leukemia
[55] = test system: ACHN renal
[56] = test system: NCI-H23 lung
[57] = test system: SF-539 CNS
[58] = test system: SW-620 colon

Structure (SMILES): CCCCCCCCOc1ccc(/C=C/C2=[N+](CCO)CCO2)cc1
- TGI [1]: 13.7 µM
- TGI [2]: 9.12 µM
- TGI [3]: 17.3 µM
- TGI [4]: 17.2 µM
- TGI [5]: 25 µM
- TGI [6]: 11.9 µM
- TGI [7]: 7.04 µM
- TGI [8]: 4.74 µM
- TGI [9]: 20 µM
- TGI [10]: 8.13 µM
- TGI [11]: 16.4 µM
- TGI [12]: 6.51 µM
- TGI [13]: 17.5 µM
- TGI [14]: 10.5 µM
- TGI [15]: 5.69 µM
- TGI [16]: 6.25 µM
- TGI [17]: 25.1 µM
- TGI [18]: 13.2 µM
- TGI [19]: 11.4 µM
- TGI [20]: 11 µM
- TGI [21]: 28 µM
- TGI [22]: 39.8 µM
- TGI [23]: 26.4 µM
- TGI [24]: 12.3 µM
- TGI [25]: 17.2 µM
- TGI [26]: 9.2 µM
- TGI [27]: 11.7 µM
- TGI [28]: 12.4 µM
- TGI [29]: 12.3 µM
- TGI [30]: 7.91 µM
- TGI [31]: 10.2 µM
- TGI [32]: 20.5 µM
- TGI [33]: 29.4 µM
- TGI [34]: 10.3 µM
- TGI [35]: 12.3 µM
- TGI [36]: 7.26 µM
- TGI [37]: 14.9 µM
- TGI [38]: 16.9 µM
- TGI [39]: 10.7 µM
- TGI [40]: 12.2 µM
- TGI [41]: > 100 µM
- TGI [42]: 14.2 µM
- TGI [43]: 14.5 µM
- TGI [44]: 19.7 µM
- TGI [45]: 8.26 µM
- TGI [46]: 6.43 µM
- TGI [47]: 4.66 µM
- TGI [48]: 14.5 µM
- TGI [49]: 13.8 µM
- TGI [50]: 9.27 µM
- TGI [51]: 5.02 µM
- TGI [52]: 11.9 µM
- TGI [53]: 11.9 µM
- TGI [54]: 4.87 µM
- TGI [55]: 13 µM
- TGI [56]: 5.28 µM
- TGI [57]: 11 µM
- TGI [58]: 6.8 µM
